Assay: Safety in phase 1/1b study (DLTs, TRAEs, TEAEs; CTCAE v4.03)
Format: in vivo, human
Conditions: 150 mg phase 1b
Excerpt: Safety assessments included evaluation of DLTs, AEs, physical examinations, vital sign measurements, electrocardiogram recordings and laboratory tests.
A DLT was defined as a grade ≥ 4 hematologic abnormality lasting ≥ 4 days; grade 3 thrombocytopenia with clinically significant bleeding; febrile neutropenia; clinically significant grade ≥ 3 non-hematologic AEs not related to underlying malignancy; intolerable grade 2 AEs; or toxicity resulting in an inability to deliver 80% of the dose during the first treatment cycle.
The safety population included all patients who received ≥ 1 dose of sitravatinib. […] The PK evaluable population included all patients with sufficient concentration-time data for PK parameter evaluation. The modified intent-to-treat (mITT) population included all phase 1b patients who received ≥ 1 dose of study drug.

For `COCCNCc1ccc(-c2cc3nccc(Oc4ccc(NC(=O)C5(C(=O)Nc6ccc(F)cc6)CC5)cc4F)c3s2)nc1` [sitravatinib, Sitravatinib], the “ALT increased TRAE, any grade” value was 18 (18.2) n (%), the “ALT increased TRAE, grade ≥3” value was 2 (2.0) n (%) and the “AST increased TEAE, any grade” value was 26 (26.3) n (%). For the same compound, the “AST increased TEAE, grade ≥3” value was 3 (3.0) n (%), the “AST increased TRAE, any grade” value was 20 (20.2) n (%) and the “AST increased TRAE, grade ≥3” value was 2 (2.0) n (%). The “Abdominal pain TEAE, any grade” value was 26 (26.3) n (%), the “Abdominal pain TEAE, grade ≥3” value was 2 (2.0) n (%) and the “Abdominal pain TRAE, any grade” value was 14 (14.1) n (%). For the same compound, the “Abdominal pain TRAE, grade ≥3” value was 0 n (%), the “Anemia TEAE, any grade” value was 23 (23.2) n (%) and the “Anemia TEAE, grade ≥3” value was 8 (8.1) n (%). The “Any TEAE” value was 99 (100.0) n (%), the “Any TRAE” value was 92 (92.9) n (%) and the “Asthenia TEAE, any grade” value was 9 (9.1) n (%). For the same compound, the “Asthenia TEAE, grade ≥3” value was 0 n (%), the “Back pain TEAE, any grade” value was 18 (18.2) n (%) and the “Back pain TEAE, grade ≥3” value was 3 (3.0) n (%). For the same compound, the “Blood and lymphatic system disorders TEAE, any grade” value was 27 (27.3) n (%), the “Blood and lymphatic system disorders TEAE, grade ≥3” value was 11 (11.1) n (%) and the “Blood creatinine increased TEAE, any grade” value was 15 (15.2) n (%). The “Blood creatinine increased TEAE, grade ≥3” value was 0 n (%), the “Cardiac disorders TEAE, any grade” value was 15 (15.2) n (%) and the “Cardiac disorders TEAE, grade ≥3” value was 6 (6.1) n (%). For the same compound, the “Constipation TEAE, any grade” value was 40 (40.4) n (%), the “Constipation TEAE, grade ≥3” value was 0 n (%) and the “Constipation TRAE, any grade” value was 9 (9.1) n (%). The “Constipation TRAE, grade ≥3” value was 0 n (%), the “Cough TEAE, any grade” value was 15 (15.2) n (%) and the “Cough TEAE, grade ≥3” value was 0 n (%). For the same compound, the “Decreased appetite TEAE, any grade” value was 38 (38.4) n (%), the “Decreased appetite TEAE, grade ≥3” value was 1 (1.0) n (%) and the “Decreased appetite TRAE, any grade” value was 27 (27.3) n (%). For the same compound, the “Decreased appetite TRAE, grade ≥3” value was 1 (1.0) n (%), the “Dehydration TEAE, any grade” value was 23 (23.2) n (%) and the “Dehydration TEAE, grade ≥3” value was 4 (4.0) n (%). The “Diarrhea TEAE, any grade” value was 67 (67.7) n (%), the “Diarrhea TEAE, grade ≥3” value was 18 (18.2) n (%) and the “Diarrhea TRAE, any grade” value was 59 (59.6) n (%). The “Diarrhea TRAE, grade ≥3” value was 14 (14.1) n (%), the “Dizziness TEAE, any grade” value was 19 (19.2) n (%) and the “Dizziness TEAE, grade ≥3” value was 0 n (%). For the same compound, the “Dizziness TRAE, any grade” value was 12 (12.1) n (%), the “Dizziness TRAE, grade ≥3” value was 0 n (%) and the “Dry mouth TEAE, any grade” value was 15 (15.2) n (%). For the same compound, the “Dry mouth TEAE, grade ≥3” value was 0 n (%), the “Dry mouth TRAE, any grade” value was 10 (10.1) n (%) and the “Dry mouth TRAE, grade ≥3” value was 0 n (%). For the same compound, the “Dysphonia TEAE, any grade” value was 26 (26.3) n (%), the “Dysphonia TEAE, grade ≥3” value was 0 n (%) and the “Dysphonia TRAE, any grade” value was 13 (13.1) n (%). The “Dysphonia TRAE, grade ≥3” value was 0 n (%), the “Dyspnea TEAE, any grade” value was 19 (19.2) n (%) and the “Dyspnea TEAE, grade ≥3” value was 2 (2.0) n (%). For the same compound, the “Edema peripheral TEAE, any grade” value was 16 (16.2) n (%), the “Edema peripheral TEAE, grade ≥3” value was 0 n (%) and the “Endocrine disorders TEAE, any grade” value was 27 (27.3) n (%). The “Endocrine disorders TEAE, grade ≥3” value was 2 (2.0) n (%), the “Fatigue TEAE, any grade” value was 55 (55.6) n (%) and the “Fatigue TEAE, grade ≥3” value was 9 (9.1) n (%). For the same compound, the “Fatigue TRAE, any grade” value was 49 (49.5) n (%), the “Fatigue TRAE, grade ≥3” value was 7 (7.1) n (%) and the “Gastrointestinal disorders TEAE, any grade” value was 89 (89.9) n (%). For the same compound, the “Gastrointestinal disorders TEAE, grade ≥3” value was 33 (33.3) n (%), the “General disorders and administration site conditions TEAE, any grade” value was 72 (72.7) n (%) and the “General disorders and administration site conditions TEAE, grade ≥3” value was 12 (12.1) n (%). For the same compound, the “Headache TEAE, any grade” value was 18 (18.2) n (%), the “Headache TEAE, grade ≥3” value was 1 (1.0) n (%) and the “Hypertension TEAE, any grade” value was 52 (52.5) n (%). The “Hypertension TEAE, grade ≥3” value was 29 (29.3) n (%), the “Hypertension TRAE, any grade” value was 46 (46.5) n (%) and the “Hypertension TRAE, grade ≥3” value was 24 (24.2) n (%). The “Hypokalemia TEAE, any grade” value was 13 (13.1) n (%), the “Hypokalemia TEAE, grade ≥3” value was 3 (3.0) n (%) and the “Hypomagnesemia TEAE, any grade” value was 17 (17.2) n (%). The “Hypomagnesemia TEAE, grade ≥3” value was 0 n (%), the “Hyponatremia TEAE, any grade” value was 16 (16.2) n (%) and the “Hyponatremia TEAE, grade ≥3” value was 5 (5.1) n (%). The “Hypophosphatemia TEAE, any grade” value was 15 (15.2) n (%).

From paper PMC9395446, “First-in-human phase 1/1b study to evaluate sitravatinib in patients with advanced solid tumors” (Investigational New Drugs, 2022)
